In patent US7713967B2, “Therapeutic substituted hydantoins, and related compounds” (Allergan, Inc., priority 2008, dated 2010):

System: lashes and adjacent hairs
Assay: Clinical observation of lashes and adjacent hairs in glaucoma patients treated in one eye
Format: in vivo
Source text: In the course of treating patients having glaucoma, treatment may only be appropriate in one eye. […] The lash appearance on the lids of the treated eyes would have appeared quite attractive if it represented a bilateral phenomenon. As a result of its asymmetric nature, the long lashes on one side could be construed as disturbing from a cosmetic standpoint. A systemic examination was preformed as a result of the asymmetric phenomenon. It soon became apparent that this altered appearance was not an isolated finding. […] Definite differences could be identified to varying degrees in the lashes and adjacent hairs of all patients who were taking the drug on a unilateral basis for longer than 6 months.
The changes in the lashes were apparent on gross inspection in several patients once attention was focused on the issue. In those with light colored hair and lashes, the differences were only seen easily with the aid of the high magnification and lighting capabilities of the slit lamp biomicroscope. In the course of glaucoma follow-up examination, attention is generally immediately focused on the eye itself. As a result of the high power magnification needed only one eye is seen at a time and the eye is seen at a high enough power that the lashes are not in focus. […]

CCNC(=O)CCC/C=C\C[C@@H]1[C@@H](/C=C/[C@@H](O)CCc2ccccc2)[C@H](O)C[C@@H]1O [bimatoprost]
lash appearance in the treated eye versus the non-treated eye (glaucoma patient treated in one eye only): longer, thicker, and fuller
hair growth in treated versus control areas (multiple parameters of hair appearance, many subjects): stimulated
